From ChEMBL document CHEMBL2390885, “Discovery of pyrido[2,3-d]pyrimidine-based inhibitors of HCV NS5A” (Bioorg Med Chem Lett, 2013)
Converted amounts (≈) assume the structure as drawn. The source made the active and inactive calls. No cut-off for these calls is given here.

What was measured:
Hepatitis C virus [1] = test: Antiviral activity against Hepatitis C virus genotype 1b harboring NS5A Y93C/K26R double mutant infected in chimpanzee assessed as reduction in viral load at 2.5 mg/kg, iv administered every 8 hrs measured after 32 hrs; assay type: functional, organism-based; set-up: dose 2.5 mg/kg; settings: Hepacivirus hominis
Hepatitis C virus [2] = test: Antiviral activity against Hepatitis C virus genotype 1b harboring NS5A L28M mutant infected in chimpanzee assessed as reduction in viral load at 2.5 mg/kg, iv administered every 8 hrs measured after 32 hrs; assay type: functional, organism-based; set-up: dose 2.5 mg/kg; settings: Hepacivirus hominis
Hepatitis C virus [3] = test: Antiviral activity against Hepatitis C virus genotype 1b harboring NS5A Q24R/K26R double mutant infected in chimpanzee assessed as reduction in viral load at 2.5 mg/kg, iv administered every 8 hrs measured after 32 hrs; assay type: functional, organism-based; set-up: dose 2.5 mg/kg; settings: Hepacivirus hominis
Hepatitis C virus [4] = test: Antiviral activity against Hepatitis C virus genotype 1b harboring NS5A K26R mutant infected in chimpanzee assessed as reduction in viral load at 2.5 mg/kg, iv administered every 8 hrs measured after 32 hrs; assay type: functional, organism-based; set-up: dose 2.5 mg/kg; settings: Hepacivirus hominis
[5] = Solubility in aqueous buffer; assay type: physicochemical
[6] = Half life in iv dosed chimpanzee; assay type: ADME, organism-based, Pan troglodytes; settings: in vivo
Hepatitis C virus [7] = test: Antiviral activity against Hepatitis C virus genotype 1b infected in chimpanzee assessed as log reduction in viral load at 2.5 mg/kg, iv administered every 8 hrs measured after 32 hrs relative to control; assay type: functional, Hepacivirus hominis
Hepatitis C virus [8] = test: Antiviral activity against Hepatitis C virus genotype 1b by replicon assay in presence of human plasma; assay type: functional, organism-based, Hepacivirus hominis
[9] = AUC in Sprague-Dawley rat at 5 mg/kg, po; assay type: ADME, organism-based; set-up: dose 5 mg/kg, route oral; settings: plasma
[10] = Oral bioavailability in Sprague-Dawley rat at 5 mg/kg; assay type: ADME, organism-based; settings: in vivo
[11] = Half life in Sprague-Dawley rat at 5 mg/kg, po; assay type: ADME, organism-based; set-up: dose 5 mg/kg, route oral; settings: in vivo
[12] = Cmax in Sprague-Dawley rat at 5 mg/kg, po; assay type: ADME, organism-based; set-up: dose 5 mg/kg, route oral; settings: in vivo
[13] = Half life in Sprague-Dawley rat at 5 mg/kg, iv; assay type: ADME, organism-based; set-up: dose 5 mg/kg, route intravenous; settings: in vivo
[14] = Clearance in Sprague-Dawley rat at 5 mg/kg, iv; assay type: ADME, organism-based; set-up: dose 5 mg/kg, route intravenous; settings: in vivo
Hepatitis C virus [15] = test: Antiviral activity against Hepatitis C virus genotype 1b by replicon assay; assay type: functional, organism-based, Hepacivirus hominis
Hepatitis C virus [16] = test: Antiviral activity against Hepatitis C virus genotype 1a by replicon assay; assay type: functional, organism-based, Hepacivirus hominis; settings: subtype 1a
[17] = Clearance in dog at 2.5 mg/kg, iv; assay type: ADME, organism-based, Canis lupus familiaris; set-up: dose 2.5 mg/kg, route intravenous; settings: in vivo
[18] = Half life in dog at 2.5 mg/kg, iv; assay type: ADME, organism-based, Canis lupus familiaris; set-up: dose 2.5 mg/kg, route intravenous; settings: in vivo
[19] = AUC in dog at 2.5 mg/kg, po; settings: plasma
[20] = Cmax in dog at 2.5 mg/kg, po; settings: in vivo
[21] = Half life in dog at 2.5 mg/kg, po; settings: in vivo
[22] = Oral bioavailability in dog at 2.5 mg/kg; settings: in vivo

| Compound | EC50 (Hepatitis C virus [15]) [nM] | EC50 (Hepatitis C virus [16]) [nM] | also measured |
| --- | --- | --- | --- |
| CC(C)c1ccc2c(Nc3cc(C(=O)N[C@@](C)(CO)c4ccccc4)ccc3Sc3ccc(N)cc3)ncnc2n1 | 2 | 188 | Activity (Hepatitis C virus [1]): inactive; Activity (Hepatitis C virus [2]): inactive; Activity (Hepatitis C virus [3]): inactive; Activity (Hepatitis C virus [4]): inactive; solubility [5]: 19.7 µM (≈ 11.1 µg/mL); half-life [6]: 4.1 h; FC (Hepatitis C virus [7]): 1.65; EC50 (Hepatitis C virus [8]): 34 nM; AUC [9]: 900 ng·h/mL; bioavailability [10]: 13.3%; half-life [11]: 2.7 h; Cmax [12]: 320 ng/mL; half-life [13]: 1.1 h; clearance [14]: 12.5 mL/min/kg |
| CC(C)c1ccc2c(Nc3cc(C(=O)N[C@@H](C)c4cccc(C(F)(F)F)c4)ccc3Sc3ccc(N)cc3)ncnc2n1 | 21 | 210 |  |
| CC(C)c1ccc2c(Nc3cc(C(=O)NC(C)c4cccnc4)ccc3Sc3ccc(N)cc3)ncnc2n1 (configuration not stated) | 377 | 1420 |  |
| CC(C)c1ccc2c(Nc3cc(C(=O)N[C@@H](C)C4CCCCC4)ccc3Sc3ccc(N)cc3)ncnc2n1 | 45 | 240 | AUC [9]: 250 ng·h/mL; bioavailability [10]: 5%; half-life [11]: 0.8 h; Cmax [12]: 200 ng/mL; half-life [13]: 0.5 h; clearance [14]: 21.5 mL/min/kg |
| COC(=O)Nc1ccc(Sc2ccc(C(=O)N[C@@H](C)c3ccccc3)cc2Nc2ncnc3nc(C(C)C)ccc23)cc1 | 4 | 42 | bioavailability [10]: 0%; half-life [13]: 0.4 h; clearance [14]: 12.8 mL/min/kg |
| Cc1ccc([C@H](C)NC(=O)c2ccc(Sc3ccc(N)cc3)c(Nc3ncnc4nc(C(C)C)ccc34)c2)cc1 | 5 | 22 | AUC [9]: 600 ng·h/mL; bioavailability [10]: 12.2%; half-life [11]: 2.6 h; Cmax [12]: 160 ng/mL; half-life [13]: 0.7 h; clearance [14]: 18.3 mL/min/kg |
| CC(C)c1ccc2c(Nc3cc(C(=O)N[C@@H](C)c4ccccc4)ccc3Sc3ccc(NS(C)(=O)=O)cc3)ncnc2n1 | 51 | 349 |  |
| C[C@H](NC(=O)c1ccc(Sc2ccc(N)cc2)c(Nc2ncnc3nc(C(F)(F)F)ccc23)c1)c1ccccc1 | 250 | 200 |  |
| CC[C@@H](NC(=O)c1ccc(Sc2ccc(N)cc2)c(Nc2ncnc3nc(C(C)C)ccc23)c1)c1ccccc1 | 127 | 266 |  |
| CC(C)c1ccc2c(Nc3cc(C(=O)N[C@@H](C)c4ccccc4)ccc3Oc3ccc(N)cc3)ncnc2n1 | 790 | 2310 |  |
| CC(C)c1ccc2c(Nc3cc(C(=O)NCc4ccccc4)ccc3Sc3ccc(N)cc3)ncnc2n1 | 130 | 150 |  |
| CC(C)c1ccc2c(Nc3cc(C(=O)N[C@H](c4ccccc4)C(F)(F)F)ccc3Sc3ccc(N)cc3)ncnc2n1 | 2 | 13 | AUC [9]: 3890 ng·h/mL; bioavailability [10]: 18.7%; half-life [11]: 1.8 h; Cmax [12]: 930 ng/mL; half-life [13]: 2.9 h; clearance [14]: 4 mL/min/kg |
| CC(C)c1ccc2c(Nc3cc(C(=O)N[C@@H](C)c4ccc5ccccc5c4)ccc3Sc3ccc(N)cc3)ncnc2n1 | 30 | 340 |  |
| CC(C)c1ccc2c(Nc3cc(C(=O)N[C@@H](C)c4ccccc4Br)ccc3Sc3ccc(N)cc3)ncnc2n1 | 28 | 169 |  |
| CC(C)c1ccc2c(Nc3cc(C(=O)N[C@@H](C)c4ccc(Br)cc4)ccc3Sc3ccc(N)cc3)ncnc2n1 | 4 | 16 | AUC [9]: 3840 ng·h/mL; bioavailability [10]: 24.9%; half-life [11]: 2 h; Cmax [12]: 330 ng/mL; half-life [13]: 1.9 h; clearance [14]: 5.67 mL/min/kg |
| Cc1cccc(C(C)NC(=O)c2ccc(Sc3ccc(N)cc3)c(Nc3ncnc4nc(C(C)C)ccc34)c2)c1 (configuration not stated) | 10 | 100 |  |
| CC(C)c1ccc2c(Nc3cc(C(=O)N[C@@H](CO)c4ccccc4)ccc3Sc3ccc(N)cc3)ncnc2n1 | 314 | 4570 |  |
| COc1ccc([C@H](C)NC(=O)c2ccc(Sc3ccc(N)cc3)c(Nc3ncnc4nc(C(C)C)ccc34)c2)cc1 | 52 | 89 |  |
| CC(C)c1ccc2c(Nc3cc(C(=O)N[C@](C)(CO)c4ccccc4)ccc3Sc3ccc(N)cc3)ncnc2n1 | 60 | 1200 |  |
| CC(C)c1ccc2c(Nc3cc(C(=O)N[C@@H](CCO)c4ccccc4)ccc3Sc3ccc(N)cc3)ncnc2n1 | 242 | 1470 |  |
| CC[C@H](NC(=O)c1ccc(Sc2ccc(N)cc2)c(Nc2ncnc3nc(C(C)C)ccc23)c1)c1ccccc1 | 33 | 35 |  |
| CC(C)c1ccc2c(Nc3cc(C(=O)N[C@@H](C)c4ccccc4)ccc3Sc3ccc(O)cc3)ncnc2n1 | 120 | 690 |  |
| CC(C)c1ccc2c(Nc3cc(C(=O)NC(C)c4ccncc4)ccc3Sc3ccc(N)cc3)ncnc2n1 (configuration not stated) | 331 | 1170 |  |

| Compound | EC50 (Hepatitis C virus [15]) [nM] | EC50 (Hepatitis C virus [16]) [nM] | also measured |
| --- | --- | --- | --- |
| CC(C)c1ccc2c(Nc3cc(C(=O)N[C@H](CO)c4ccccc4)ccc3Sc3ccc(N)cc3)ncnc2n1 | 237 | 3030 |  |
| CC(C)c1ccc2c(Nc3cc(C(=O)N[C@H]4CCc5ccccc54)ccc3Sc3ccc(N)cc3)ncnc2n1 | 54 | 451 |  |
| CC(C)c1ccc2c(Nc3cc(C(=O)N[C@@H](C)c4ccc(F)cc4)ccc3Sc3ccc(N)cc3)ncnc2n1 | 2 | 10 |  |
| CC(=O)Nc1ccc(Sc2ccc(C(=O)N[C@@H](C)c3ccccc3)cc2Nc2ncnc3nc(C(C)C)ccc23)cc1 | 149 | 5030 |  |
| CC(C)c1ccc2c(Nc3cc(C(=O)NC(C)c4ccccn4)ccc3Sc3ccc(N)cc3)ncnc2n1 (configuration not stated) | 164 | 919 |  |
| Cc1ccccc1C(C)NC(=O)c1ccc(Sc2ccc(N)cc2)c(Nc2ncnc3nc(C(C)C)ccc23)c1 (configuration not stated) | 30 | 300 |  |
| C[C@H](NC(=O)c1ccc(Sc2ccc(N)cc2)c(Nc2ncnc3ncccc23)c1)c1ccccc1 | 6250 | 7890 |  |
| CC(C)c1ccc2c(Nc3cc(C(=O)N[C@@H](C)c4ccccc4)ccc3Sc3ccc(N)cc3)ncnc2n1 | 7 | 45 | solubility [5]: 5 µM (≈ 2.67 µg/mL); EC50 (Hepatitis C virus [8]): 1200 nM; AUC [9]: 6490 ng·h/mL; bioavailability [10]: 42.4%; half-life [11]: 2.7 h; Cmax [12]: 1480 ng/mL; clearance [17]: 4.33 mL/min/kg; half-life [13]: 1.6 h; clearance [14]: 5.5 mL/min/kg; half-life [18]: 3.2 h; AUC [19]: 2350 ng·h/mL; Cmax [20]: 490 ng/mL; half-life [21]: 3 h; bioavailability [22]: 18.8% |
| CC(C)c1ccc2c(Nc3cc(C(=O)NC(C)c4cccc(F)c4)ccc3Sc3ccc(N)cc3)ncnc2n1 (configuration not stated) | 15 | 92 |  |
| CC(C)c1ccc2c(Nc3cc(C(=O)NC(C)(C)c4ccccc4)ccc3Sc3ccc(N)cc3)ncnc2n1 | 181 | 284 |  |
| COc1ccccc1C(C)NC(=O)c1ccc(Sc2ccc(N)cc2)c(Nc2ncnc3nc(C(C)C)ccc23)c1 (configuration not stated) | 40 | 610 |  |
| CC(C)c1ccc2c(Nc3cc(C(=O)N[C@H](C)c4ccccc4)ccc3Sc3ccc(N)cc3)ncnc2n1 | 100 | 180 |  |
| CC(C)c1ccc2c(Nc3cc(C(=O)N[C@H](CCO)c4ccccc4)ccc3Sc3ccc(N)cc3)ncnc2n1 | 347 | 3270 |  |
| CC(C)c1ccc2c(Nc3cc(C(=O)N[C@@H]4CCc5ccccc54)ccc3Sc3ccc(N)cc3)ncnc2n1 | 13 | 16 |  |
| CC(C)c1ccc2c(Nc3cc(C(=O)NC(C)c4cccs4)ccc3Sc3ccc(N)cc3)ncnc2n1 (configuration not stated) | 159 | 378 |  |
| COc1cccc([C@H](C)NC(=O)c2ccc(Sc3ccc(N)cc3)c(Nc3ncnc4nc(C(C)C)ccc34)c2)c1 | 4 | 24 |  |
| CC(C)c1ccc2c(Nc3cc(C(=O)NC(C)c4ccccc4F)ccc3Sc3ccc(N)cc3)ncnc2n1 (configuration not stated) | 20 | 280 |  |
| CC(C)c1ccc2c(Nc3cc(C(=O)N[C@@H](C)c4ccccc4C(F)(F)F)ccc3Sc3ccc(N)cc3)ncnc2n1 | 20 | 370 |  |
| CC(C)c1ccc2c(Nc3cc(C(=O)NC(C)c4cccc(Br)c4)ccc3Sc3ccc(N)cc3)ncnc2n1 (configuration not stated) | 9 | 33 |  |
| C[C@H](NC(=O)c1ccc(Sc2ccc(N)cc2)c(Nc2ncnc3nc(C(C)(C)C)ccc23)c1)c1ccccc1 | 3 | 46 |  |
| Cc1ccc2c(Nc3cc(C(=O)N[C@@H](C)c4ccccc4)ccc3Sc3ccc(N)cc3)ncnc2n1 | 600 | 1200 |  |
| CC(C)c1ccc2c(Nc3cc(C(=O)NC4(c5ccccc5)CC4)ccc3Sc3ccc(N)cc3)ncnc2n1 | 700 | 1070 |  |
| CC(C)c1ccc2c(Nc3cc(C(=O)NC(C)c4ccc(C(F)(F)F)cc4)ccc3Sc3ccc(N)cc3)ncnc2n1 (configuration not stated) | 41 | 66 |  |
